Reference: patent US8383662B2, “Bicyclic heteroaryl compounds” (National Chiao Tung University, priority 2006, dated 2013)

How the values were obtained:
VEGF receptor 3 = target: T1, VEGF receptor 3 (Homo sapiens, UniProt P35916); test: KIRA-ELISA assay (VEGFR3 phosphotyrosine after VEGF-C stimulation); assay type: cell-based; conditions: NCI-H928, H928 cells stimulated by recombinant VEGF-C, read-out: inhibition percentage
T1 construct: lyse the cells and solubilize the VEGFR3; endogenous in cells; host or cells: H928 cells
T1 sequence (P35916 25-1363): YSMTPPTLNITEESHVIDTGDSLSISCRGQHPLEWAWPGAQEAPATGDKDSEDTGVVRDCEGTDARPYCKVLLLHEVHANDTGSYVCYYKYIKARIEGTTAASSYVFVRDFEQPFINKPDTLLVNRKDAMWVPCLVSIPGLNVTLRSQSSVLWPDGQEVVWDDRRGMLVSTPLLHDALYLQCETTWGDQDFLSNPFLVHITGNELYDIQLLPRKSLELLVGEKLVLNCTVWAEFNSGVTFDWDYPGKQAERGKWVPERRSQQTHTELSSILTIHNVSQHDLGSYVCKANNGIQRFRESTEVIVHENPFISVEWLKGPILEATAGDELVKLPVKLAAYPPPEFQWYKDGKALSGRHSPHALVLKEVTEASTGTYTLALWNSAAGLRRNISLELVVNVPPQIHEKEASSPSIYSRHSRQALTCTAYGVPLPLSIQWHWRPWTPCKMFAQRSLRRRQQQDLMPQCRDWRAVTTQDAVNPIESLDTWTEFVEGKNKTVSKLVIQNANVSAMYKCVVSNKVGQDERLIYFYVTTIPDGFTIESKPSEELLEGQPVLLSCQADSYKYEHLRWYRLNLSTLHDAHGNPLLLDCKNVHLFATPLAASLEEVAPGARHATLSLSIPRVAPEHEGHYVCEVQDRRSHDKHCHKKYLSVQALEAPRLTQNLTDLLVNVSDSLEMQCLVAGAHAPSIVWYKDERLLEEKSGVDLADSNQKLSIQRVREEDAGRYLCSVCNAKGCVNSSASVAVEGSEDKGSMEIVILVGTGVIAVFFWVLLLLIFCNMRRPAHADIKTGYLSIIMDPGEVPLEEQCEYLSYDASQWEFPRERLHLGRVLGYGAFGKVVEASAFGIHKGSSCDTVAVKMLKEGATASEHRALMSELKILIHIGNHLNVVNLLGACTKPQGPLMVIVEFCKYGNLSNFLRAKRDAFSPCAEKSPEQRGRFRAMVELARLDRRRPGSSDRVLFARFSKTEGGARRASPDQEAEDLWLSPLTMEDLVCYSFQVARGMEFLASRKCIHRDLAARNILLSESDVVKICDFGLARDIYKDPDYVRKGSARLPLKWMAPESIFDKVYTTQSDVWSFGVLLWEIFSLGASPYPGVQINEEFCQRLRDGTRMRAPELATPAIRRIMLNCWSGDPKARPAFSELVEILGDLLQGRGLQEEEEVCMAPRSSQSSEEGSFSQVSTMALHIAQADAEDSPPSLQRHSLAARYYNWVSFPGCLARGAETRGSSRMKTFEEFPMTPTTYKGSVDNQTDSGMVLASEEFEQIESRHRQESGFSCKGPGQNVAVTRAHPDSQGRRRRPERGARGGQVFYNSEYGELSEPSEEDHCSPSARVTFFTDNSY
Protocol: This assay was performed in two microtiter plates. The first plate was used to culture an adherent cell line expressing the VEGF receptor 3 and to stimulate the receptor with a test compound. The second plate was used to capture the solubilized membrane receptor, which was then probed for phosphotyrosine content with phosphotyrosine-specific antibody.
Specifically, H928 cells (2×10^5) in 100 μl medium were added to each well in a flat-bottom 24-well culture plate and cultured overnight at 37° C. in 5% CO2. After the supernatants were removed, the cells were serum-starved for 24 hours. A medium containing a test compound was added into each well and the cell culture was incubated for 30 minutes before it was stimulated by recombinant VEGF-C for 15 minutes. After the supernatants were removed, 100 μl of a lysis buffer were added into each well to lyse the cells and solubilize the VEGFR3. […] The absorbance at 450 nm and the absorbance at a reference wavelength of 650 nm (A450/650) were measured using an ELISA reader.
The inhibition efficacy of each test compound is expressed as an inhibition percentage calculated according to the following formula: 1−[(C−A)/(B−A)]. In this formula, A is the basal amount of phosphotyrosine detected in a blank control, B is the amount of phosphotyrosine detected with VEGF-C only, and C is the amount of phosphotyrosine detected with a test compound and VEGF-C.

4T1^LUC+ cells [1] = test: In vivo assay on inhibiting spontaneous metastasis; parameters: species or system BALB/c mice; conditions: 50 mg/kg i.p. once daily; for luminescent signal intensity (metastatic tumor burden): end of the fourth week after compound treatment (sixth week after implantation), FIG. 2
Protocol: To investigate the effect of test compounds on distant spontaneous metastasis generated by the tumor cells, 4T1^LUC+ cells obtained by the method described in Example 188 were implanted into the right inguinal mammary fat pads of 6-week old BALB/c mice (1×10^5 cells in 100 μL PBS/mouse). After 14 days of tumor cell implantation, a single dose of 50 mg/kg body weight of a test compound or vehicle was administered intraperitoneally once daily. Compounds 2, 56, and 91 were used in this assay. Sorafenib (Nexavar®) and sunitinib (Sutent®) were also used as reference compounds.
A total of 36 mice, six for each of the six groups (i.e., 5 groups treated with test compounds and 1 vehicle group), were imaged once weekly for a period of 6 weeks after tumor cell implantation via bioluminescence imaging.
In vivo bioluminescence imaging was conducted on a cryogenically cooled IVIS™ system (Xenogen Corp., Alameda, Calif.) coupled to a data-acquisition PC running Living Image version 3.1 software (Xenogen Corp.). Before imaging, animals were anesthetized in a plastic chamber filled with 2% isofluorane/air mixture and 150 mg/mL of luciferin (potassium salt, Xenogen Corp.) and normal saline was injected (i.p.) into each mouse at a dose of 150 mg/kg body weight. This dose and route of administration has been previously shown to be optimal for studies in rodents when images were acquired between 10 and 20 minutes post-luciferin administration (Contag C H et al. 1997 Photochem Photobiol.; 66:523-531). During image acquisition, isofluorane anesthesia was maintained using a nose cone delivery system and animal body temperature was regulated using a digitally thermostated bed integrated within the IVIS™ system (Xenogen Corp., Alameda, Calif.). A gray scale body surface image was collected in the chamber under dim illumination, followed by acquisition and overlay of the pseudocolor image representing the spatial distribution of detected photon counts emerging from active luciferase within the animal. An integration time of 1 minute was used for luminescent image acquisition.
The average of the in vivo bioluminescence intensities measured on the 14th day post tumor cell implantation but before treatment with test compounds severed as a baseline, corresponding to the metastatic tumor burden of the vehicle group, as shown in FIG. 2.

4T1^LUC+ cells [2] = test: Effects on tumor recurrence and survival rate; assay type: in vivo, BALB/c mice; conditions: 50 mg/kg i.p. once daily; for overall survival life span: compared with vehicle group, FIG. 4; for luminescent signal intensity after tumor resection (tumor recurrence): sustain treatment vs stop treatment, FIG. 3
Protocol: 4T1^LUC+ cells obtained by the method described in Example 188 were implanted into the right inguinal mammary fat pads of 6 to 8-week old female BALB/c mice (1×10^5 cells in 100 μL PBS/mouse). After 14 days of tumor cell implantation, a single dose of 50 mg/kg body weight of a test compound or vehicle (PBS) was administered intraperitoneally once daily for three weeks. Compounds 2, 56, and 91 were tested in this assay. Sorafenib (Nexavar®) and sunitinib (Sutent®) were also used as reference compounds.
At the end of three-week treatment, the orthotopically grown tumors were surgically removed from the six groups of mice (i.e., 5 groups each treated with a test compound and 1 vehicle group). Then each of the six groups (i.e., 5 groups each treated with a test compound and 1 vehicle group) were divided into two subgroups, one with no further drug treatment (denoted as “stop treatment” in FIG. 3) and the other with continued drug treatment for 35 days (denoted as the “sustain treatment” in FIG. 3).
Bioluminescent data were collected in a manner similar to that described in Example 189 above at the end of day 35 after tumor resection.

[3] = tested on: 4T1^LUC+ cells (murine 4T1 breast cancer); test: In vivo assay on tumor growth inhibition; parameters: species or system BALB/c mice
Protocol: Compounds were tested for their efficacy in inhibiting tumor growth on murine tumor xenografts.
Murine 4T1 breast cancer cells (purchased from the American Type Culture Collection) were cultured to sub confluence in RPMI medium supplemented with 10% fetal bovine serum (GIBCO Invitrogen Corp.) at 37° C., 90% humidity and 5% CO2. The 4T1^LUC+ cells were established by the stable transfection of the firefly luciferase gene (pGL3-control, Promega Corporation) to 4T1 cells using LipofectAMINE PLUS Reagent (Life Technologies, Inc., Grand Island, N.Y.) for quantitative assessment of tumor burden in visceral organs. pcDNA3 vector (Invitrogen Co., Carlsbad, Calif.) was cotransfected for the selection by G418 (Sigma). The resulting 4T1^LUC+ colonies were isolated and cultured independently and the best expressing lines were identified based on the level of bioluminescent activity in the presence of luciferin in living cells. Highly bioluminescent clone was selected for further studies. […]
The length (i.e., the biggest diameter) and width (i.e., the smallest diameter) of the tumor was measured every 3.5 days by using a Vernier caliper. The tumor volume was then calculated as follows: volume=A×B^2×0.52, where A is the length of the tumor and B is the width of the tumor.

[4] = tested on: 4T1 cells / 4T1^luc+ cells; test: Effects on tumor self-seeding; assay type: in vivo, BALB/c mice; conditions: 50 mg/kg orally once daily
Protocol: Unlabeled parental 4T1 cells were implanted into a mammary gland of 6 to 8-week old female BALB/c mice (1×10^5 cells in 100 μL PBS/mouse). After 14 days of tumor cell implantation, a single dose of 50 mg/kg body weight of a test compound or vehicle (PBS) was administered orally once daily for 2 days. Compound 56 was tested in this assay. Sunitinib (Sutent®) was used as a reference compound. Then 4T1^luc+ cells (1×10^5 cells in 100 μL PBS/mouse) were injected into the circulatory system of the mice by intracardiac injection. The mice were then administered orally with a single dose of 50 mg/kg body weight of a test compound or vehicle (PBS) once daily for 2 days.
Bioluminescent data were collected in a manner similar to that described in Example 189 above.

SMILES | inhibition at 1 µM (VEGF receptor 3) [%] | inhibition of spontaneous metastasis compared with Sorafenib and sunitinib (4T1^LUC+ cells [1]) | luminescent signal intensity (metastatic tumor burden) (4T1^LUC+ cells [1]) | overall survival life span (4T1^LUC+ cells [2]) | luminescent signal intensity after tumor resection (tumor recurrence) (4T1^LUC+ cells [2]; day 35 after tumor resection) | tumor growth inhibition (tumor volume) ([3]; 50 mg/kg intraperitoneally once daily from day 14 after implantation, FIG. 1) | survival rate ([3]; 50 mg/kg intraperitoneally once daily, compared with Sorafenib-treated mice) | tumor recurrence reduction compared with sunitinib (4T1^LUC+ cells [2]; day 35 after tumor resection) | ability in inhibiting tumor self-seeding compared with Sutent [4] | bioluminescence from the thoracic cavity ([4]; day 7 post the second 2-day drug treatment, compared with vehicle group, FIGS. 5A and 5B) | bioluminescence from the abdominal cavity compared with Sutent-treated group ([4]; day 14 post the second 2-day drug treatment) | bioluminescence from the abdominal cavity ([4]; day 14 post the second 2-day drug treatment, compared with vehicle group)
COC(=O)c1ccc2c(c1)nc(-c1ccc3cn(CCC(c4ccccc4)c4ccccc4)nc3c1)n2CCC1=CCCCC1 [Compound 2] | ~65 | comparable or superior to the commercial drugs | significant lower luminescent signal intensity as compared with the vehicle group | increased the overall survival life span of the treated mice as compared with those in the vehicle group | lower luminescent signal intensity as compared with the corresponding group without continuous treatment |  |  |  |  |  |  | 
CCCCc1nc2cccc(-c3nc4cc(C(=O)OC)ccc4n3CC(C)C)c2n1CCCC [Compound 56] |  | comparable or superior to the commercial drugs | did not exhibit any detectable luminescent signal | increased the overall survival life span of the treated mice as compared with those in the vehicle group | lower luminescent signal intensity as compared with the corresponding group without continuous treatment | inhibited tumor growth almost as effectively as Sutent and Sorafenib | higher survival rate than those treated with Sorafenib | reduced tumor recurrence to a degree comparable to that of sunitinib | comparable or even superior ability in inhibiting tumor self-seeding to that of Sutent | much weaker bioluminescence from the thoracic cavity | weaker bioluminescence form the abdominal cavity | much weaker bioluminescence form the abdominal cavity
CCCCc1nc2cccc(-c3nc4cc(C(=O)O)ccc4n3CC(C)C)c2n1CCCC [Compound 91] |  | comparable or superior to the commercial drugs | significant lower luminescent signal intensity as compared with the vehicle group | increased the overall survival life span of the treated mice as compared with those in the vehicle group | lower luminescent signal intensity as compared with the corresponding group without continuous treatment |  |  |  |  |  |  | 
